Where two headings read alike, the source gives them in different places.

Data set [1] deals with L1210 cells. Briefly: Inhibition of growth of L1210 cells in culture (growth fraction). It is filed as cell-based, murine. Conditions: for stereospecificity result with 10 μM copper sulfate: 10 μM instead of 50 μM copper; for potentiation of SMETH by other metal ions: 10 μM; for protection from growth inhibition by copper-SMETH: copper-SMETH 15 and 30 μM; for IC50: potentiation of growth inhibition by DL-SMETH 75 or 100 μM, estimated by interpolation, read-out: Conc. for 50% further inhibition; for activity at 50 µM: L1210, L-SMETH 50 μM, read-out: growth (percent of control). Here is the method: Cytotoxicity of SMETH was assessed as follows. Cells were harvested at mid-log phase (8-10×10^5 cells/ml) washed with fresh growth medium and resuspended at 1×10^5 cells per ml as determined by a model ZBI Coulter Counter (Coulter Electronics, Hialeah, Fla.). Suspensions (7 ml) were added to 25 cm^2 Corning flasks, and SMETH, 20 mM in water, with or without copper sulfate, 2 mM in water were added as dilutions in water at no greater than 10 μl/ml of the cell suspension.
(§1) Cells were grown at 37° C. for designated times in tightly stoppered flasks and cell density was determined as indicated above. Cell volume distribution was monitored with a C1000 Channelyzer with standard size latex particles (Coulter) as reference. The results are expressed as growth fraction (N--No/No) or as percent growth fraction compared to appropriate controls.
(The cells also were incubated for 40 hours).
1 with S-(methylthio)-DL-homocysteine DL-SMETH, (See curve .smallcircle.--.smallcircle. in FIG. 4) and with the pure L-enantiomorph, L-SMETH, (See curve -- in FIG. 4).

Data set [2] deals with L1210 cells. Briefly: Cell volume of L1210 cells (Channelyzer). It is filed as cell-based, murine. The settings on record: growth inhibition. Here is the method:
as §1
(To obtain the data in FIG. 5, the cells were incubated with S-(methylthio)-L-homocysteine 15 μM, (curve .smallcircle.--.smallcircle.) and 30 μM (curve -- )together with their corresponding concentrations of copper sulfate). […] To obtain the data in FIG. 6, the cells were incubated for 14 hours in the medium described in the above section entitled Growth And Its Inhibition In Cell Culture, but containing only 1 mM glutamine, 1/2 the normal concentration. […] At the end of the incubation, the cell density in the inhibited culture was determined, and &he entire population centrifuged for analysis. An aliquot containing an equal number of cells from the control culture was removed for comparison, and both samples processed and analyzed as described in the above section entitled Analysis of Nucleoside Triphosphate Pools. […]
To obtain the data in FIG. 7, cells were incubated under standard conditions with S-(methylthio)-L -homocysteine and copper sulfate, each 15 μM, and cell volume monitored during the course of the incubation. […]

The test system of data set [3] is L1210 cells in primary culture. Briefly: Growth of L1210 cells in primary culture (obtained directly from the mouse) with copper. In kind it is cell-based. Here is the method: (The cells also were incubated for 40 hours). (See FIG. 3 of Mohindru, A., Fisher, J. M., and Rabinovitz, M. "2,9-Dimethyl-1,10-phenanthroline (neocuproine): A Potent, Copper-dependent Cytotoxin With Anti-tumor Activity.)" A concentration of 10 μM was more than adequate as a potentiating dose, but at this concentration other metal ions (Zn^++, Mn^++, CO^++, Ni^++, Cr^+++) were ineffective. […] Such cells fail to grow unless supplemented with an appropriate mercaptan or disulfide (See curve .smallcircle.--.smallcircle. in FIG. 3). […] Thus, both the organic and inorganic moieties of this invention show high specificity in this inhibition.

The test system of data set [4] is endothelial cell. Conditions: via copper catalyzed hydrogen peroxide generation; cited from earlier work.
The test system of data set [5] is methionine metabolism. The settings on record: via its adenosyl derivative; cited from earlier work.
Data set [6] concerns lymphoblasts. Conditions: with added adenosine and deoxycoformycin; cited from earlier work.
Data set [7] concerns cellular methylations. Conditions: cited from earlier work.
In data set [8] the test system is purine biosynthesis. The settings on record: literature; cited from earlier work.
The conditions of data set [9]: Cecil and McPhee; cited from earlier work.

With `CSSCCC(N)C(=O)O` (racemic) [DL-SMETH, S-(methylthio)-DL-homocysteine], in data set [1], the “inhibition of cellular proliferation” value is “potent inhibitor of cellular proliferation” and the “stereospecificity result with 10 μM copper sulfate” value is reported as “nearly identical results”. In data set [1] (40 hours, copper ion present), the “range of inhibitory concentration of SMETH with copper ion” value was “both reduced and narrowed in the presence of copper ion”. The same compound showed a percent inhibition in [1] (DL-SMETH 75 μm alone) of 46%. Moreover, the percent inhibition in [1] (DL-SMETH 75 μm plus adenosine 10 μm, deoxycoformycin 20 μm) is reported as 46%. Further, in [1] (Mus musculus, L1210, 40 hours, without copper, read-out: threshold level), the minimal effective concentration is 25 µM. In addition, the “cytotoxicity to L1210 cells” value in data set [1] (alone, 40 hours) is listed as “cytotoxic to L1210 cells in culture when present at a broad range of micromolar concentrations”. Moreover, in data set [1] (copper ion 50 μM), the “relative activity of racemic form (vs D-SMETH as printed)” value is given as “half as active as D-SMETH”. In addition, in data set [1] (threshold SMETH 25 μM with micromolar copper ion, 40 hours), the “effect of copper ion on inhibition by SMETH” value was “completely inhibitory concentration”. Besides, the “cell volume change over a two day period” value in data set [2] is “progressive increase in cell volume”.
With `CSSC[C@H](N)C(=O)O` [4-thiamethionine, S-(methylthio)-L-cysteine], in data set [3] (4TM 50 μM), the “growth support with copper ion” value was “supported growth which was independent of copper ion concentration”. In addition, in data set [3] (L1210 primary culture), the “cytotoxicity in the presence of copper” value is “not cytotoxic in the presence of copper” and the “protection from growth inhibition by copper” value is listed as “protected L1210 cells in primary culture from growth inhibition by copper”.
As for `Nc1ncnc2c1ncn2[C@@H]1O[C@H](CO)[C@@H](O)[C@H]1O` [Adenosine], in data set [1] (10 μM alone), the toxicity of adenosine result is listed as “not toxic to L1210 cells”. Moreover, the “toxicity of adenosine with L-homocysteinethiolactone” value in data set [1] (10 μM with non-toxic concentration of L-homocysteinethiolactone) is on record as “toxic when added together with a non-toxic concentration of L-homocysteinethiolactone”. Besides, the “effect of adenosine on SMETH potency” value in data set [1] (toxic dose of SMETH) is “did not increase the potency of a toxic dose of SMETH”.
For the compound `[Co+2]` [CO^++], the “potentiation of SMETH by other metal ions” value (“potentiation of SMETH” below) in data set [1] is reported as “ineffective”.
Regarding `[Cr+3]` [Cr^+++], in data set [1], the “potentiation of SMETH” value was “ineffective”.
On to `Nc1ccn([C@@H]2O[C@H](CO)[C@@H](O)[C@H]2O)c(=O)n1` [Cytidine], for which the “protection from growth inhibition by copper-SMETH” value in [1] is “protected the cells from growth inhibition, and this protection was non-competitive”.
Turning to `CSSCC[C@@H](N)C(=O)O` [D-SMETH], in data set [1] (50 μM with 50 μM copper ion), the “activity of D-SMETH” value is “completely inactive”.
`NC(=O)CC[C@H](N)C(=O)O` [Glutamine]: the “protection against SMETH and SMETH plus Cu++” value in data set [1] (glutamine, millimolar concentrations) is “protected cells against SMETH and SMETH plug Cu^++”.
In the case of `N[C@@H](CCS)C(=O)O` [Homocysteine], the endothelial cell damage entry in data set [4] was “promote endothelial cell damage”. The “toxicity by blocking methionine metabolism” value in [5] is “toxic by blocking methionine metabolism”.
Regarding `OCCSSCCO` [Hydroxyethyl Disulfide (HEDS), Hydroxyethyl Disulfide], the “growth promotion and its inhibition by copper” value in [3] (high copper concentrations) is on record as “promoted growth, but this was inhibited by high copper concentrations”.
Consider `N[C@H]1CCSC1=O` [L-Homocysteine Thiolactone], for which, in [1] (L-homocysteine thiolactone 200 μM plus adenosine 10 μM, deoxycoformycin 20 μM), the percent inhibition stood at 39%. Besides, in data set [1] (Mus musculus, L1210, L-homocysteine thiolactone 200 μM alone, read-out: percent inhibition), the inhibition – broadly, the share of the control response that was lost under treatment – at 200 µM came out at 5%. In addition, the growth block entry in data set [6] is on record as “can block growth”.
With `CC(C)C[C@H](N)C(=O)O` [L-Leucine], the IC50 in data set [1] is 1 mM.
Take `CSCC[C@H](N)C(=O)O` [L-Methionine]: the IC50 in data set [1] is 2 mM.
Take `CCCC[C@H](N)C(=O)O` [L-Norleucine]: the IC50 in [1] was 2.5 mM.
Consider `CSSCC[C@H](N)C(=O)O` [L-SMETH, S-(methylthio)-L-homocysteine], for which the “stereospecificity result with 10 μM copper sulfate” value in [1] was “nearly identical results”. Moreover, the activity at 50 µM in data set [1] (Mus musculus, glutamine 0.5 mM) was determined as 15%; in data set [1] (Mus musculus, glutamine 1.0 mM) it was 31%; in data set [1] (Mus musculus, glutamine 2.0 mM), 58%; in data set [1] (Mus musculus, glutamine 4.0 mM), 98%.
Take `[Mn+2]` [Mn^++]: in data set [1], the “potentiation of SMETH” value was “ineffective”.
Turning to `[Ni+2]` [Ni^++], in [1], the “potentiation of SMETH” value was “ineffective”.
As to `CCSC[C@H](N)C(=O)O` [S-Ethyl-L-cysteine], the IC50 in [1] is 1 mM.
In the case of `Nc1ncnc2c1ncn2[C@@H]1O[C@H](CSCC[C@H](N)C(=O)O)[C@@H](O)[C@H]1O` [S-adenosylhomocysteine], the entries for the “inhibition of cellular methylations” value in data set [7] and in data set [7] (listed as Adenosylhomocysteine) were “potent inhibitor of cellular methylations” and “potent inhibitor of cellular methylation processes”, respectively.
With `O=c1ccn([C@@H]2O[C@H](CO)[C@@H](O)[C@H]2O)c(=O)[nH]1` [Uridine], the “protection from growth inhibition by copper-SMETH” value in [1] is “ineffective in such protection”.
Take `[Zn+2]` [Zn^++]: the “potentiation of SMETH” value in data set [1] is listed as “ineffective”.
Take `N[C@H](C(=O)O)[C@@H]1CC(Cl)=NO1` [acivicin, (alphaS,5S)-alpha-amino-3-chloro-4,5-dihydro-5-isoxazoleacetizacid]: in data set [8], the “sites blocked in purine biosynthesis” value is “also block some sites in purine biosynthesis”.
Consider `[N-]=[N+]=CC(=O)OC[C@H](N)C(=O)O` [azaserine], for which, in data set [8], the “sites blocked in purine biosynthesis” value is reported as “also block some sites in purine biosynthesis”.
Regarding `O=S(=O)([O-])[O-].[Cu+2]` [copper ion, copper sulfate], in data set [1] (copper ion alone, at much higher levels than micromolar potentiating levels), the “toxicity of the ion itself” value is “non -toxic itself at much higher levels”. Also, the “potentiating dose of copper ion” value in data set [1] (with SMETH, 40 hours, "more than adequate") is at most 10 µM.
Regarding `[N-]=[N+]=CC(=O)CC[C@H](N)C(=O)O` [diazo-oxo-norleucine, 6-diazo-5-oxo-norleucine], the “sites blocked in purine biosynthesis” value in data set [8] is listed as “also block some sites in purine biosynthesis”.
As to `Nc1nc2c(ncn2[C@@H]2O[C@H](CO)[C@@H](O)[C@H]2O)c(=O)[nH]1` [guanosine], in [1], the “protection from growth inhibition by copper-SMETH” value is listed as “ineffective in such protection”.
In the case of `N[C@@H](CCSSCC[C@H](N)C(=O)O)C(=O)O` [homocystine], the “rate of reaction with silver ion relative to cystine” value in data set [9] is 267 times.
As to DL-Isopropionine, in data set [1], the IC50 is 2 mM.

The values above are taken from patent publication US5124351A, “Pharmaceutical compositions for the treatment of cancers susceptible to treatment with the copper complex of S-(methylthio)-DL-homocysteine or the L-enantimorph thereof” (The United States of America as represented by the …, priority 1989, dated 1992).
